Test system: submitochondrial particles
Format: biochemical

Oc1c(Cl)c(Cl)c(Cl)c(Cl)c1Cl [Pentachlorophenol]
Inhibition of maximum NADH concentration: 39%

Source: patent publication US4808517A (priority 1985, dated 1989)
